Values of other authors as cited in PubChem BioAssay AID1259409 (Chemical Carcinogenesis Research Information System (CCRIS), 2018).

Test system: rodent chemically induced tumor inhibition, incidence and multiplicity
Experiment: CCRIS tumor inhibitor studies

CC(Cc1ccc(O)c(O)c1)C(C)Cc1ccc(O)c(O)c1 (stereo unspecified)
tumour outcome (control, treated, inhibition, significance) (Carcinogen: 7,12-DIMETHYLBENZ[A]ANTHRACENE, 57-97-6, Dose [Inhibitor]: 0, 10 UMOL IN 0.2 ML ACETONE 1/D FOR 7 D BEGINNING 7 D PRIOR TO CARCINOGEN DOSE (STUDY DURATION: 17 WK), Route [Inhibitor]: DERMAL, Species: RAT, Strain/Sex: SENCAR/FEMALE, Target Tissue: Type of Lesion: SKIN: TUMOR, Dose [Carcinogen]: 40 NMOL IN 0.2 ML ACETONE ONCE, Promoter: 12-0-TETRADECANOYLPHORBOL-13-ACETATE, 16561-29-8): 100%, 100%, 0%, not significant | tumour outcome (control, treated, inhibition, significance) (Carcinogen: 7,12-DIMETHYLBENZ[A]ANTHRACENE, 57-97-6, Dose [Inhibitor]: 0, 10 UMOL IN 0.2 ML ACETONE 2/WK FOR 16 WK APPLIED 30 MIN PRIOR TO PROMOTER DOSES (STUDY DURATION: 17 WK), Route [Inhibitor]: DERMAL, Species: RAT, Strain/Sex: SENCAR/FEMALE, Target Tissue: Type of Lesion: SKIN: TUMOR, Dose [Carcinogen]: 40 NMOL IN 0.2 ML ACETONE ONCE, Promoter: 12-0-TETRADECANOYLPHORBOL-13-ACETATE, 16561-29-8): 100%, 85%, 15%, not calculated | tumour outcome (control, treated, inhibition, significance) (Carcinogen: 7,12-DIMETHYLBENZ[A]ANTHRACENE, 57-97-6, Dose [Inhibitor]: 30 UMOL APPLIED 30-40 MIN BEFORE EACH TPA TREATMENT AND CONCURRENTLY WITH TPA (STUDY DURATION: 18 WK), Route [Inhibitor]: DERMAL, Species: MOUSE, Strain/Sex: CD-1/FEMALE, Target Tissue: Type of Lesion: SKIN: PAPILLOMA, Dose [Carcinogen]: 200 NMOL ONCE, Promoter: 12-O-TETRADECANOYLPHORBOL-13-ACETATE, 16561-29-8): 96%, 50%, 48%, not calculated | tumour outcome (control, treated, inhibition, significance) (Carcinogen: DIETHYLNITROSAMINE, 55-18-5, Dose [Inhibitor]: 0, 1 MG/D IN 0.2 ML CORN OIL 3/WK FOR 16 WKS BEGINNING POST CARCINOGEN DOSE (STUDY DURATION: 24 WKS), Route [Inhibitor]: GAVAGE, Species: MOUSE, Strain/Sex: SWISS/MALE, Target Tissue: Type of Lesion: KIDNEY: RENAL CELL TUMOR, Dose [Carcinogen]: 100 MG/KG BW IN SALINE ONCE, Promoter: FERRIC NITRILOTRIACETATE, 16448-54-7): 68%, 20%, 71%, not calculated | tumour outcome (control, treated, inhibition, significance) (Carcinogen: DIETHYLNITROSAMINE, 55-18-5, Dose [Inhibitor]: 0, 2 MG/D IN 0.2 ML CORN OIL 3/WK FOR 16 WK BEGINNING POST CARCINOGEN DOSE (STUDY DURATION:24 WKS), Route [Inhibitor]: GAVAGE, Species: MOUSE, Strain/Sex: SWISS/MALE, Target Tissue: Type of Lesion: KIDNEY: RENAL CELL TUMOR, Dose [Carcinogen]: 100 MG/KG BW IN SALINE ONCE, Promoter: FERRIC NITRILOTRIACETATE, 16448-54-7): 68%, 16%, 76%, not calculated | tumour outcome (control, treated, inhibition, significance) (Carcinogen: N-BUTYL-N-(4-HYDROXYBUTYL)NITROSAMINE, 3817-11-6, Dose [Inhibitor]: 0, 0.1% IN DIET CONCURRENT WITH PROMOTER BEGINNING POST CARCINOGEN TREATMENT AND CONTINUING FOR 36 WK (STUDY DURATION: 4, Route [Inhibitor]: ORAL, Species: RAT, Strain/Sex: F344/MALE, Target Tissue: Type of Lesion: URINARY BLADDER: CARCINOMA, Dose [Carcinogen]: 0.05% IN DRINKING WATER FOR 4 WK, Promoter: SODIUM SACCHARIN, 128-44-9): 2/23 (9%), 1/22 (5%), 44%, not significant | tumour outcome (control, treated, inhibition, significance) (Carcinogen: N-BUTYL-N-(4-HYDROXYBUTYL)NITROSAMINE, 3817-11-6, Dose [Inhibitor]: 0, 0.1% IN DIET CONCURRENT WITH PROMOTER BEGINNING POST CARCINOGEN TREATMENT AND CONTINUING FOR 36 WK (STUDY DURATION: 4, Route [Inhibitor]: ORAL, Species: RAT, Strain/Sex: F344/MALE, Target Tissue: Type of Lesion: URINARY BLADDER: PAPILLOMA, Dose [Carcinogen]: 0.05% IN DRINKING WATER FOR 4 WK, Promoter: SODIUM SACCHARIN, 128-44-9): 5/23 (22%), 0/22 (0%), 100%, p<0.05

S=C=Nc1cc2ccccc2c2ccccc12
outcome (Carcinogen: BENZO[A]PYRENE, 50-32-8, Dose [Inhibitor]: 0, 5 UMOL IN ACETONE 4 HR PRIOR TO CARCINOGEN DOSE (STUDY DURATION: 20 WK), Route [Inhibitor]: DERMAL, Species: MOUSE, Strain/Sex: STRAIN-A/FEMALE, Target Tissue: Type of Lesion: SKIN: TUMOR, Dose [Carcinogen]: 0.1 UMOL IN ACETONE ONCE, Promoter: 12-O-TETRADECANOYLPHORBOL-13-ACETATE, 16561-29-8): 85%, 95%, -12%, not significant at 15 wk; 95%, 95%, 0%, not significant at 20 wk

CCCC(=O)OC[C@@H](OC(=O)CCC)[C@@H](OC(=O)CCC)[C@H](Cn1c2nc(=O)[nH]c(=O)c-2nc2cc(C)c(C)cc21)OC(=O)CCC
tumour outcome (control, treated, inhibition, significance) (Carcinogen: 3-METHYLCHOLANTHRENE, 56-49-5, Dose [Inhibitor]: 0.1% IN 0.05 ML ACETONE 2 HR AFTER APPLICATION OF THE CARCINOGEN THEN 1/2 D (STUDY DURATION: 15 WK), Route [Inhibitor]: DERMAL, Species: MOUSE, Strain/Sex: DDY/FEMALE, Target Tissue: Type of Lesion: SKIN: PAPILLOMA, Dose [Carcinogen]: 0.3% IN 0.05 ML ACETONE 2/WK, Promoter: NONE USED): 7/50 (14%), 2/49 (4%), 71%, not calculated | tumour outcome (control, treated, inhibition, significance) (Carcinogen: 3-METHYLCHOLANTHRENE, 56-49-5, Dose [Inhibitor]: 0.1% IN 0.05 ML ACETONE 2 HR AFTER APPLICATION OF THE CARCINOGEN THEN 1/2 D (STUDY DURATION: 15 WK), Route [Inhibitor]: DERMAL, Species: MOUSE, Strain/Sex: DDY/FEMALE, Target Tissue: Type of Lesion: SKIN: SQUAMOUS CELL CARCINOMA, Dose [Carcinogen]: 0.3% IN 0.05 ML ACETONE 2/WK, Promoter: NONE USED): 34/50 (68%), 20/49 (41%), 40%, p<0.01

NCCCCN
tumour outcome (control, treated, inhibition, significance) (Carcinogen: AZOXYMETHANE, 25843-45-2, Dose [Inhibitor]: 0, 300 UMOL/KG IN 0.9% SALINE 1/2 D FOR THE DURATION OF STUDY (STUDY DURATION: 40 WK), Route [Inhibitor]: INTRAPERITONEAL, Species: RAT, Strain/Sex: WISTAR/MALE, Target Tissue: Type of Lesion: COLON: TUMOR, Dose [Carcinogen]: 7.4 MG/KG IN 0.9% SALINE 1/WK FOR 10 WK, Promoter: NONE USED): 16/20 (80%), 6/18 (33%), 59%, p<0.01
